Reference: PMC5259782, “Allosteric Inhibition of Phosphoenolpyruvate Carboxylases is Determined by a Single Amino Acid Residue in Cyanobacteria” (Scientific Reports, 2017)

Experiments:
Test in all cases: malate dehydrogenase-coupled NADH assay, residual activity
Type in all cases: biochemical
SyPEPC = biological target: T1, SyPEPC (Synechocystis sp. PCC 6803, UniProt P74299); conditions: read-out: SyPEPC activity (in vitro)
T1 construct: gene ppc
T1 sequence (P74299 1-1034): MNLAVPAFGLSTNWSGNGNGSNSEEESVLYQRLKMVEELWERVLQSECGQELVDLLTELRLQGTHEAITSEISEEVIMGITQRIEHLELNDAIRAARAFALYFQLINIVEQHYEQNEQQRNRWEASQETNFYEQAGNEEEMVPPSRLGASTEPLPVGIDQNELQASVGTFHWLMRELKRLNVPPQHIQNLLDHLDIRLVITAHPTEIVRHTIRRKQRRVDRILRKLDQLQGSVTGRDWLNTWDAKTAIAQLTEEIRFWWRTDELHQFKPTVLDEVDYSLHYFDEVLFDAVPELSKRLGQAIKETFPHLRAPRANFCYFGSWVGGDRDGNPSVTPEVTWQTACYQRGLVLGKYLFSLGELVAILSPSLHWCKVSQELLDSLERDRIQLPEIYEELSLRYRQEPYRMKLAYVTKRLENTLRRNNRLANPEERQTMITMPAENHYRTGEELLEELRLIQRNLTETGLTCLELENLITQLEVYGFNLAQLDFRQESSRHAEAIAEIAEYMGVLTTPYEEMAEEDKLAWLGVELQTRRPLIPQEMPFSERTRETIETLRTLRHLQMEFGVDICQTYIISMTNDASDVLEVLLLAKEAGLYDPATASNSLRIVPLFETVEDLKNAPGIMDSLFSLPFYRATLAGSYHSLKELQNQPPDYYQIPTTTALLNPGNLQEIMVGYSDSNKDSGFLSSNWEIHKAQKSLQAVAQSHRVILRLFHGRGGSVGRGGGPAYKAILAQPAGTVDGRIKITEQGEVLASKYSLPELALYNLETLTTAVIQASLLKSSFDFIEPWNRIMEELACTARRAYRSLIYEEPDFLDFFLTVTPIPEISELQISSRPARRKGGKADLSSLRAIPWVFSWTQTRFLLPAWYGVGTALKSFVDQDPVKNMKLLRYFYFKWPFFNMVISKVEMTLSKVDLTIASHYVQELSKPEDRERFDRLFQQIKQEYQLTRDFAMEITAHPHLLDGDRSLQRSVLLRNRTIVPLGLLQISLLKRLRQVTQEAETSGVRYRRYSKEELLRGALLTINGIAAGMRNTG
Excerpt: malate dehydrogenase-coupled NADH assay, residual activity on SyPEPC

AnPEPC [1] = biological target: T2, AnPEPC (Nostoc sp. PCC 7120 = FACHB-418, UniProt P28594, K946E); conditions: aspartate; allosteric
T2 construct: gene ppc
T2 sequence (P28594 whole entry K946E): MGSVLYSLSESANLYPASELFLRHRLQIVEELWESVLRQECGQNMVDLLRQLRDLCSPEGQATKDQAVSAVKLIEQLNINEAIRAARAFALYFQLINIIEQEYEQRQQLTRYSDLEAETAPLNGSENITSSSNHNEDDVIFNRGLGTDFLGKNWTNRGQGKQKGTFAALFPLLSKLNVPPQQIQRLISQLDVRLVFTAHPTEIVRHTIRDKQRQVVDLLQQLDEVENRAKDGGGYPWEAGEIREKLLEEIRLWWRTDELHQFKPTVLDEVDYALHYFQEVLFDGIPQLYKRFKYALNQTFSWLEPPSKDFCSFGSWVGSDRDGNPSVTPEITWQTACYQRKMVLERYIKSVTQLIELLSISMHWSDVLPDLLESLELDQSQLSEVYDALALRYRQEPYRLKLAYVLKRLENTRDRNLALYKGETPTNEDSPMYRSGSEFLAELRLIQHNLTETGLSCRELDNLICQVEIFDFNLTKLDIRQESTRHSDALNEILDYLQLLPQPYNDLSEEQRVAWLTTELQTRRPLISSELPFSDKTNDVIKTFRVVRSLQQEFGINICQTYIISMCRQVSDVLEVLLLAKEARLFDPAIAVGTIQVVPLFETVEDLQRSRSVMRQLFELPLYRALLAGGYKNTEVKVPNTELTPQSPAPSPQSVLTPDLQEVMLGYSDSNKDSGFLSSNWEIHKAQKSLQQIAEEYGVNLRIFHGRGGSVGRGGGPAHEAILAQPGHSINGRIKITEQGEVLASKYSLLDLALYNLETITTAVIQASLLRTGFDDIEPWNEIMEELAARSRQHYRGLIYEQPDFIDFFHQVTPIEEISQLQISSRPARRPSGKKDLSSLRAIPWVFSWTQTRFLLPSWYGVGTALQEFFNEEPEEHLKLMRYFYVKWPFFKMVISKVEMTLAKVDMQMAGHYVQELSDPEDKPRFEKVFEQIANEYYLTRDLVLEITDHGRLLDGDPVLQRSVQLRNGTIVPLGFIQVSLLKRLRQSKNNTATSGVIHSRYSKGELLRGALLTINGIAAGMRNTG

AnPEPC [2] = biological target: T3, AnPEPC (Nostoc sp. PCC 7120 = FACHB-418, UniProt P28594); conditions: aspartate; allosteric
T3 construct: gene ppc
T3 sequence (P28594 whole entry): as the sequence (P28594 whole entry K946E) above, with E946K counted along it

N[C@@H](CC(=O)O)C(=O)O [aspartate]
activity at 1000 µM (SyPEPC): 85.2 ± 10.7%
% activity remaining (AnPEPC [1]): The inhibitory effect of aspartate on AnPEPC was not altered by this amino acid substitution
% activity remaining (AnPEPC [2]): The inhibitory effect of aspartate on AnPEPC was not altered by this amino acid substitution
